Measured values taken from US20160262664A1, “Detection Of Disease Using Gesture Writing Bio-Markers” (priority 2015, published 2016).

Tested on: PD patient
Assay: EMG analysis during rest, postural and writing activity in the same subject before and after medication (monitoring of drug effectiveness)
Type: in vivo
Details: after meds
Excerpt: Technology for detecting Parkinson's disease (PD) comprises of a group of indicators (endpoints) that are based on various Electromyography (EMG) properties of hand muscles during gesture writing as well as kinematics and pen traces. Gesture writing is the type of writing, when part of the time a pen is touching the tablet (writing activity) and part of the time a pen is not touching the tablet (postural activity). During postural period a hand is held against gravity. Postural EMG activity can be found programmatically by analyzing the writing activity, since it is known from the tablet recording when a pen was touching a tablet and not touching the tablet. In addition, EMG at rest is recorded, while both hands are lying on a table. The properties of resting EMG signals are also included in the analysis. Two differential channels of EMG are recorded from each hand. EMG recordings are synchronized with the input from the tablet PC.
In one example, 100 trials were administered. A beep sound denotes the end of one trial and beginning of the next trial. Writing activity was analyzed while a subject was writing a number “3” in cursive. The length of each trial was 5 sec. During “rest,” trials with a length of 5 sec each were generated. Postural trials were selected by a computer program. 100 trials for each type of activity were recorded. A large number of trials (around 100) is very important in the analysis, because muscle activity has high variability. A statistical ensemble is created in order for statistical analysis to be applied. A confidence interval was calculated to confirm the existence of peaks in Fast Fourier Transform (FFT).
Condition 1: Resting. The experimental session started with a recording where the participants were resting with both hands, forearms, and elbows on the table. During one continuous recording the experimenter triggered at least 25 trials of 5 seconds by touching the electronic pen on the tablet after each beep. In total 4 such files were recorded with 1-minute pauses in between, yielding 100 resting trials in total. During the pause the participants rested their hands on their knees.
Condition 2: Character-Writing and postural control of pen lift. After the resting session the participants were instructed to wait with the pen lifted while the entire forearm including elbow rested on the table. Upon hearing the beep participants were to touch the tablet with the pen and write character “3” as fast and convenient as possible and then lift the pen until the next beep. The next beep was automatically generated 4 seconds after the pen lift. As the participants were instructed to keep their forearms resting on the table the thumb muscles were optimally involved in producing character “3”. The non-writing arm rested on the table as in the resting condition. The writing segment was defined as the 5-second segment starting 2 seconds before the pen touched the writing surface till 3 seconds after that (See FIG. 3). We also defined a postural segment starting when the pen was lifted till the beep that was generated 4 seconds later. Thus each trial included a writing segment and a postural segment. The experimenter ensured that after the first trial at least 25 good trials were recorded. The experimenter ensured that at least 25 successful trials were recorded. This means that the subject had to write a complete character and only after that they lift up the pen and waited for a beep to start writing another character. All trials, including incidentally failed trials (except first and last one) were included in the analysis. After recording 25 acceptable trials, the participant was instructed to pause for 1 minute with both hands on the knees like in the resting condition. In total 4 files of 5 minutes were recorded yielding 100 trials.
Our Norconnect DH software (written in MATLAB, MathWorks, Natick, Mass., USA) processed the EMGs and handwriting kinematics to quantify 8 PD indicators (See Table 2). […]

[1] = EMG spectral peak, in 4 channels

For C#CCN[C@@H]1CCc2ccccc21 [Rosageline], the “Tremor, Postural” value [1] was “No (in 4”, the “Tremor, Rest” value [1] was “No (in 4” and the “Stiffness, spectral density maximum, Postural, ch3” value (ch3 left hand) was “ch.3: 2 mV”. For the same compound, the “Stiffness, spectral density maximum, Postural, ch4” value (ch4 left hand) was “ch4: 1.1 (mV)”, the “Weakness, mean intensity, Writing, ch1” value (criterion <0.005 mV^2, ch1) was “ch1: 0.003 mV^2” and the “Weakness, mean intensity, Writing, ch2” value (criterion <0.005 mV^2, ch2) was “ch2: 0.018 (mV^2)”. The “Stiffness, spectral density maximum, Rest, ch1” value (criterion >0.5 mV, ch1 right hand) was “ch1: 2 mV”, the “Stiffness, spectral density maximum, Rest, ch2” value (criterion >0.5 mV, ch2 right hand) was “ch2: 2.4 mV” and the “Stiffness, spectral density maximum, Rest, ch3” value (criterion >0.5 mV, ch3 left hand) was “ch3: 0.6 mV”. The “Stiffness, spectral density maximum, Rest, ch4” value (criterion >0.5 mV, ch4 left hand) was “ch4: 0.6 (mV)”, the “Stiffness, spectral density maximum, Postural, ch1” value (criterion >1 mV, ch1 right hand) was “ch1: 2 mV” and the “Stiffness, spectral density maximum, Postural, ch2” value (criterion >1 mV, ch2 right hand) was “ch2: 7.5 mV”.
